Where a SMILES comes first, the peptide text is derived from it. [ ]: non-standard residue; d: D form. The star is where a group is joined. Sta = CC(C)C[C@H](N)[C@@H](O)CC(=O)O; Isovaleryl = CC(C)CC(=O)*
test system: Lay2 L chain, human monoclonal antibody light chain (Bence Jones protein, kappa IIc subgroup) from a multiple myeloma patient; assay type: biochemical

Which “Effect on Lay2-catalyzed gp120 hydrolysis” value (“Effect” for short) does the source give for O=C(O)CN(CCN(CC(=O)O)CC(=O)O)CC(=O)O [EDTA] here?
Its value is “without effect”.

For NC(=O)CI [iodoacetamide], which “Effect” value is on record?
The value was “without effect”.

How did the “Effect” value turn out when CC(C)CC(=O)N[C@H](C(=O)N[C@H](C(=O)N[C@@H](CC(C)C)[C@@H](O)CC(=O)N[C@@H](C)C(=O)N[C@@H](CC(C)C)[C@@H](O)CC(=O)O)C(C)C)C(C)C [Pepstatin A] (Isovaleryl-VV[Sta]A[Sta]-OH) was run?
The value was “without effect”.

Reference: patent US6156541A (priority 1998, dated 2000)
